Results: US11964041B2, “Compositions comprising levan and use thereof” (GAN SHMUEL FOODS LTD., priority 2018, dated 2024)

Columns and labels:
Type in all cases: cell-based
[1] = test system: Staphylococcus epidermidis; experiment: Bacterial growth, minimal inhibition concentration (MIC) assay; conditions: Ampicillin 100 μg/ml, positive control
Description: The experiment was conducted in Staphylococcus epidermidis. Two Test Items were evaluated in this study; Levan and a Commercial reference (C.R.). The assay was carried out in triplicates. The in vitro activity of the Test items was evaluated by minimal inhibition concentration (MIC) assay. This was measured spectrometrically. The increase bacteria number versus time of incubation w/o or with increasing concentrations of the Test items was plotted. Streak plate isolation technique was performed to isolate a single homogenous colony, according to SOP. One colony of each bacterial strain was inoculated from agar plate into U-shape falcon tube at a final volume of 4 ml in BHI liquid broth. Cultures were incubated in a bacterial incubator-shaker at 37° C. with shaking at 250 rpm overnight. The cultures were diluted and grown to mid-log phase (O.D. Approx. 0.5; 600 nm). The exact O.D. was recorded [0.506]. Dose response analysis of six concentrations for each Test Item was performed in the bacteria as described in Table 7. The following control groups were included in this study: Naïve group (Group 1), Vehicle group (mock treatment—hexose, Group 2) and positive control groups (Ampicillin (100 μg/ml), Group 3). […] The absorbance was recorded at 600 nm. The absorbance of the blank control was subtracted from all measurements (0.107).

human skin explants [2] = experiment: Epidermal viability by MTT in human skin organ culture; conditions: 10% SDS, positive control, 48 hr
Description: (§1) The human skin organ culture was obtained from a healthy patient undergoing plastic surgery (person). The study was initiated at the day of surgery.
(§2) Fixed size skin explant pieces (0.64 cm^2) were cut from the skin tissue, using a designated press apparatus.
(§3) The skin pieces were prepared and maintained in air liquid interphase; the explants were laid in 6-well culture plates containing skin culture medium (Dulbecco Minimal Essential Medium (DMEM) supplemented with 100 U/ml penicillin and 100 μg/ml streptomycin), dermal side down in the medium and epidermis phasing up. The pieces were left to recover at 37° C. with 5% CO2 overnight. […]
(§4) The following control groups were also included in this study: Naïve group (Group 1), Vehicle group (mock treatment—hexose, Group 2), and positive control groups for viability and proliferation (10% SDS, Group 3 and 10 ng/ml EGF, Group 4, respectively). Hyaluronic acid was evaluated in this system (0.2%, Group 5). […]
(§5) The pieces were incubated at 37° C. with 5% CO2 under humidified atmosphere for 48 hr. […] The epidermal viability was evaluated by MTT, according to standard operating procedure (SOP). […] Concomitantly, the epidermal turnover rate was determined on the second set of test groups by BrdU assay according to the kit's manufacturer instructions.

human skin explants [3] = experiment: Epidermal turnover rate by BrdU assay in human skin organ culture; conditions: hyaluronic acid 0.2% with vehicle
Description: as §1, §2, §3, §4
as §5, with “instructions. […]” for “instructions.”
Colorimetric evaluation of the turnover rate was recorded by Enzyme-Linked Immunosorbent Assay (ELISA) reader.

## CC1(C)S[C@@H]2[C@H](NC(=O)[C@H](N)c3ccccc3)C(=O)N2[C@H]1C(=O)O [Ampicillin]
[1]
  bacterial growth (O.D. 600 nm): effectively blocked the bacterial growth

## CCCCCCCCCCCCOS(=O)(=O)[O-].[Na+] [SDS]
Human skin explants [2]
  skin viability (MTT): reduced skin viability

## Hyaluronic acid
Human skin explants [3]
  effectiveness compared with the disclosed levan-based composition: less effective
